Results published in patent EP1351565B1, “CHEMICAL INHIBITORS OF MISMATCH REPAIR” (Morphotek, Inc., priority 2001, dated 2002).

Tests used:
MMR activity = conditions: in vitro assays; cited from earlier work
[1] = test system: immortalized human breast epithelial cells; conditions: cited from earlier work
Arabidopsis thaliana [2] = assay: Toxicity curve of DMA and EMS on Arabidopsis seeds (root and shoot formation); assay type: in vivo
Procedure: Briefly, AT seeds were sterilized with straight commercial bleach and 100 seeds were plated in 100mm Murashige and Skoog (MS) phytagar (Life Technology) plates with increasing amounts of DMA (ranging from 100µm to 50mM). A similar amount of seeds were plated on MS phytagar only or in MS phytagar with increasing amounts of EMS (100µM to 50mM), a mutagen commonly used to mutate AT seeds (McCallum, C.M.et al. (2000) Nat. Biotechnol.18:455-457). Plates were grown in a temperature-controlled, fluorescent-lighted humidifier (Percival Growth Chamber) for 10 days. After 10 days, seeds were counted to determine toxicity levels for each compound. […] Plantlets that were identical to untreated seeds were scored healthy. Seeds with stunted root or shoot formation were scored intermediate (inter). Non-germinated seeds were scored dead. Table 2: Toxicity curve of DMA and EMS on Arabidopsis (per […])

[3] = test system: Pichia yeast containing a pGUS-OF reporter system; assay: Pichia yeast pGUS-OF reporter assay for MMR blockade; assay type: cell-based; conditions: 300 µM, 48 hours
Procedure: Briefly, the GUS-OF and GUS-IF gene, which contains a polyA repeat at the N-terminus of the protein was subcloned from the pCR=IF-GUS and pCR-OF-GUS plasmids into the EcoRI site of the pGP vector, which is a consitutively expressed yeast vector containing a zeocin resistance gene as selectable marker. pGP-GUS-IF and pGP-GUS-OF vectors were electroporated into competent Pichia cells using standard methods known by those skilled in the art. Cells were plated on YPD agar (10g/L yeast extract; 20 g/L peptone; 2% glucose; 1.5% bactoagar) plates containing 100 µg/ml zeocin. Recombinant yeast are then analyzed for GUS expression/function by replica plating on YPD agar plates containing 100 µg/ml zeocin plus 1 mg/ml X-glu (5-bromo-4-chloro-3-indoyl-beta-D-glucuronide sodium salt) and grown at 30°C for 16 hours. […] None of the yeast containing the GUS-OF turned blue in the presence of the X-glu substrate under normal growth conditions.
After incubation, yeast were plated on YPD-ZEO-X-GLU plates and grown at 30°C for 16 hours.

Arabidopsis thaliana [4] = assay: New phenotypes in offspring of chemically treated Arabidopsis plants; assay type: in vivo
Procedure: Next, 50 seeds were plated in two 150mm dishes containing 2mM DMA, 250 µM EMS or no drug. Seeds were grown for 10 days and then 10 plants from each plate were transferred to soil. All plants appeared to be similar in color and height. Plants were grown at room temperature with daily cycles of 18 hr light and 6 hr dark. After 45 days seeds are harvested from siliques and stored in a desiccator at 4°C for 72 hours. Seeds are then sterilized and 100 seeds from each plant is sown directly into water-saturated soil and grown at room temperature with daily cycles of 18 hr light and 6 hr dark. […] These 7 altered plants were light green in color and appeared to grow slower. […] DMA-exposed plants produced offspring that were yellow in appearance in contrast to dark green, which is always found in wild-type plants. In addition, the yellow plants were also shorter. After 30 days, most wild-type plants produced flowers and siliques, while the 7 mutants just began flowering. After 45 days, control plants were harvested while mutant plants were harvested 10 to 15 days later.

H36pCAR-OF cell line = assay: H36pCAR-OF screening assay (MMR-sensitive β-galactosidase reporter); assay type: cell-based, murine
human HEK293 cells [5] = assay: Toxicity in HEK293 cells; assay type: cell-based; conditions: 250 µM, 293 cells
human HEK293 cells [6] = assay: Microsatellite instability of endogenous BAT26 marker in 293 cells; assay type: cell-based; conditions: 250 µM DMA
Procedure: Briefly, […] were grown in control medium or 250 µM DMA, a concentration that is found to be non-toxic, for 14 to 17 days. Cells are then harvested and genomic DNA isolated using the salting out method (Nicolaides, N.C. et al. (1991) Mol. Cell. Biol. 11 :6166-6176.).
Various amounts of test DNAs from HCT116 (a human colon epithelial cell line) and 293 were first used to determine the sensitivity of our microsatellite test. The BAT26 alleles are known to be heterogeneous between these two cell lines and the products migrate at different molecular weights (Nicolaides personal observation). DNAs were diluted by limiting dilution to determine the level of sensitivity of the assay. DNAs were PCR amplified using the BAT26F: 5'-[…]-3' (SEQ ID NO:43) and the BAT26R: 5'-[…]-3' (SEQ ID NO:44) primers in buffers as described (Nicolaides, N.C. et al. (1995) Genomics 30:195-206). Briefly 1 pg to 100 ngs of DNA were amplified using the following conditions: 94°C for 30 sec, 58°C for 30 sec, 72°C for 30 sec for 30 cycles. […]
To measure for microsatellite stability in 293 cells grown with or without DMA, 0.1 ngs of DNA from DMA-treated or control 293 cells were amplified using the reaction conditions above. […] Fifty bacterial colonies were analyzed for BAT26 structure by directly adding an aliquot of live bacteria to the PCR mix. […]

[7] = at high concentrations; cited from earlier work
[8] = rat-liver microsomal preparations; cited from earlier work
MMR defective cell lines = conditions: cited from earlier work
[9] = Arabidopsis thaliana, in vivo, 10 days, 0.1 mM
[10] = Arabidopsis thaliana, in vivo, 10 days, 0.5 mM
[11] = Arabidopsis thaliana, in vivo, 10 days, 1 mM
[12] = Arabidopsis thaliana, in vivo, 10 days, 2.5 mM
[13] = Arabidopsis thaliana, in vivo, 10 days, 5 mM
[14] = Arabidopsis thaliana, in vivo, 10 days, 10 mM
[15] = Arabidopsis thaliana, in vivo, 10 days, 12.5 mM
[16] = Arabidopsis thaliana, in vivo, 10 days, 25 mM
[17] = Arabidopsis thaliana, in vivo, 10 days, 50 mM
[18] = concentration 0.5 (mM), 10 days
[19] = concentration 1.0 (mM), 10 days
[20] = concentration 2.5 (mM), 10 days
[21] = concentration 5.0 (mM), 10 days
[22] = concentration 12.5 (mM), 10 days

## Nc1ncnc2c1ncn2[C@@H]1O[C@H](COP(=O)(O)OP(=O)(O)NP(=O)(O)O)[C@@H](O)[C@H]1O [AMP-PNP]
MMR activity
  effect on MMR activity: block the MMR activity

## c1ccc2c(c1)cc1ccc3cccc4ccc2c1c34 [benzo [a]pyrene]
[1]
  effect on MMR activity: MMR activity might have been blocked

## CCOS(C)(=O)=O [EMS, ethyl methanesulfonate]
Arabidopsis thaliana [2]; Arabidopsis thaliana, in vivo, 10 days
  concentration at which toxicity occurs: 250 µm
Arabidopsis thaliana [2]; [9]
  Healthy: 100 per 100 cells
  Inter: 0 per 100 cells
Arabidopsis thaliana [2]; [10]
  Healthy: 45 per 100 cells
  Inter: 54 per 100 cells
Arabidopsis thaliana [2]; [11]
  Healthy: 25 per 100 cells
  Inter: 75 per 100 cells
Arabidopsis thaliana [2]; [12]
  Healthy: 0 per 100 cells
  Inter: 0 per 100 cells
Arabidopsis thaliana [2]; [13]
  Healthy: 0 per 100 cells
  Inter: 0 per 100 cells
Arabidopsis thaliana [2]; [14]
  Healthy: 0 per 100 cells
  Inter: 0 per 100 cells
Arabidopsis thaliana [2]; [15]
  Healthy: 0 per 100 cells
  Inter: 0 per 100 cells
Arabidopsis thaliana [2]; [16]
  Healthy: 0 per 100 cells
  Inter: 0 per 100 cells
Arabidopsis thaliana [2]; [17]
  Healthy: 0 per 100 cells
  Inter: 0 per 100 cells
[3]
  blue subclones (GUS activity) on YPD-ZEO-X-GLU plates: none are seen
Arabidopsis thaliana [4]; 150 offspring at day 10 of plants grown from seeds plated in 250 µM EMS
  phenotypically distinct plants: no phenotypic difference was observed
H36pCAR-OF cell line
  MI and/or shifting of the polynucleotide tract in the pCAR-OF reporter (β-galactosidase positive cells): did not result in MI

## Cc1c2ccccc2c(C)c2c1ccc1ccccc12 [7,12-dimethylbenz[a]anthracene]
[1]
  effect on MMR activity: MMR activity might have been blocked

## Cc1c2ccccc2c(C)c2ccccc12 [DMA, 9,10-dimethylanthracene]
Human HEK293 cells [5]
  toxicity: non-toxic
Arabidopsis thaliana [2]; concentration 0.1 (mM), 10 days, non-germinated seeds scored dead
  Dead: 0 per 100 seeds
Arabidopsis thaliana [2]; concentration 0.1 (mM), 10 days, stunted root or shoot formation scored intermediate
  Inter: 0 per 100 seeds
Arabidopsis thaliana [2]; concentration 0.1 (no unit in head; mM), MS phytagar, 10 days, identical to untreated seeds
  Healthy: 94 per 100 seeds
Arabidopsis thaliana [2]; [18]
  Dead: 0 per 100 seeds
  Inter: 0 per 100 seeds
Arabidopsis thaliana [2]; concentration 0.5 (mM), MS phytagar, 10 days
  Healthy: 99 per 100 seeds
Arabidopsis thaliana [2]; [19]
  Dead: 0 per 100 seeds
  Inter: 0 per 100 seeds
Arabidopsis thaliana [2]; concentration 1.0 (mM), MS phytagar, 10 days
  Healthy: 99 per 100 seeds
Arabidopsis thaliana [2]; [20]
  Dead: 0 per 100 seeds
  Inter: 20 per 100 seeds
Arabidopsis thaliana [2]; concentration 2.5 (mM), MS phytagar, 10 days
  Healthy: 80 per 100 seeds
Arabidopsis thaliana [2]; [21]
  Dead: 0 per 100 seeds
  Inter: 15 per 100 seeds
Arabidopsis thaliana [2]; concentration 5.0 (mM), MS phytagar, 10 days
  Healthy: 85 per 100 seeds
Arabidopsis thaliana [2]; concentration 10 (mM), 10 days
  Dead: 0 per 100 seeds
  Inter: 32 per 100 seeds
Arabidopsis thaliana [2]; concentration 10 (mM), MS phytagar, 10 days
  Healthy: 65 per 100 seeds
Arabidopsis thaliana [2]; [22]
  Dead: 0 per 100 seeds
  Inter: 85 per 100 seeds
Arabidopsis thaliana [2]; concentration 12.5 (mM), MS phytagar, 10 days
  Healthy: 0 per 100 seeds
Arabidopsis thaliana [2]; concentration 25 (mM), 10 days
  Dead: 0 per 100 seeds
  Inter: 100 per 100 seeds
Arabidopsis thaliana [2]; concentration 25 (mM), MS phytagar, 10 days
  Healthy: 0 per 100 seeds
Arabidopsis thaliana [2]; concentration 50 (mM), 10 days
  Dead: 100 per 100 seeds
  Inter: 0 per 100 seeds
Arabidopsis thaliana [2]; concentration 50 (mM), MS phytagar, 10 days
  Healthy: 0 per 100 seeds
Arabidopsis thaliana [2]; continuous culture, Arabidopsis seeds
  concentration at which toxicity occurs: 10 mM
Human HEK293 cells [6]; 14 to 17 days, PCR and 12% PAGE
  BAT26 alleles (microsatellite instability): showed the presence of an altered allele
Human HEK293 cells [6]; five clones sequenced, control homozygous 26nt polyA
  BAT26 polyA repeat length by sequence analysis: multiple alleles ranging from the wild-type with 26 polyA repeat to shorter alleles (24 polyA repeat) and larger alleles (28 polyA repeat)
[3]
  blue subclones (GUS activity) on YPD-ZEO-X-GLU plates: a subset of yeast expressing GUS-OF contain blue subclones
Arabidopsis thaliana [4]; offspring at day 10 of plants grown from seeds plated in 2mM DMA
  phenotypically distinct plants: 7 out of 118
[7]
  mutagenicity: acts as a potent weak mutagen
[8]
  metabolites formed: converted to 9-Hydroxymethyl-10-methylanthracene (9-OHMeMA) and 9,10-dihydroxymethyl-anthracene (9,10-DiOHMeA)
H36pCAR-OF cell line
  MI and/or shifting of the polynucleotide tract in the pCAR-OF reporter (β-galactosidase positive cells): shifting the pCAR-OF reporter plasmid

## COc1ccc2nc3cc(Cl)ccc3c(NCCCNCCCl)c2c1 [ICR191]
MMR defective cell lines
  mutation rates in MMR defective cell lines: produce enhanced mutation rates in already MMR defective cell lines

## Nc1ncnc2c1ncn2[C@@H]1O[C@H](COP(=O)(O)OP(=O)(O)OP(O)(O)=S)[C@@H](O)[C@H]1O [ATP[gamma]S]
MMR activity
  effect on MMR activity: block the MMR activity
